A short description of series [1]: Thermostability study at 65° C. (UPLC-MS). The format is physicochemical. As to conditions: up to 120 h; for degradation at 65° C. (percentage of starting material and degradation products, peak areas at 260 nm): 300 μM, 40% DMSO, 1.0 M potassium acetate. As for the experimental part: An aqueous mixture was prepared, containing 300 μM dATP-SPh-NPP, 40% DMSO and 1.0 M potassium acetate. For reference another mixture with 300 μM dATP replacing dATP-SPh-NPP was prepared. 150 μL of each mixture were incubated at 65° C. in a Thermoshaker. After 0, 2, 18, 25, and 120 h samples of each solution (20 μL) were analyzed by UPLC-MS (Ultra performance liquid chromatography—mass spectrometry). The peak areas at 260 nm were used to calculate the percentage of starting material and degradation products.

Series [2] can be described thus: Photocleavage by UV-LED irradiation (UPLC-MS). The format is physicochemical. As to conditions: UV-LED λmax=393 nm. As to the method:
Two aqueous mixtures of dATP-SPh-NPP and ATP-DMNPE (300 μM each) were prepared in sodium phosphate buffer (100 mM, pH 7.0). Both samples were irradiated simultaneously with light from an UV-LED lamp (InGaN, Quantum well, λmax=393 nm, 0.18 W/LED) in open vials without shaking or stirring. After 0, 1, 2, 4, 8, and 16 min. the irradiation was shortly paused for sample removal (20 μL) and subsequent UPLC-MS analysis. The peak areas at 260 nm were used to calculate the percentage of starting material and photocleavage products. The molecular identities of the starting materials and cleavage products were confirmed by mass spectrometry.

The subject of the next series is polymerase enzyme. Briefly: Real-Time PCR (TaqMan PCR) amplification with caged dATP, with and without UV exposure. To be noted: 400 μM dATP-SPh-NPP instead of dATP, 400 cp target DNA. The format is biochemical. As for the experimental part: Real-Time PCR (TaqMan® PCR) mixtures with a total volume of 50 μL were prepared by combining three components termed PCR master mixture (20 μL), buffer mixture (20 μL), and dNTP mixture (10 μL). All PCR components were prepared from DEPC water. The PCR master mixture contained tricine buffer (pH 8.2), potassium acetate, glycerol, DMSO, detergent, target DNA (400 cp), polymerase aptamer, probe, primers, SYBR green dye, and polymerase enzyme. The buffer mixture contained manganese acetate (8.3 mM) and imidazole (0, 3.0, or 6.0 mM). The dNTP mixture contained dATP (400 μM), dCTP (400 μM), dGTP (400 μM), and dUTP (800 μM). Another dNTP mixture contained dATP-SPh-NPP (400 μM) instead of dATP. The final concentration of DNA target was 400 cp/reaction.
TaqMan® PCRs of equal composition were positioned on two separate sections of a 96-well plate. Each section contained PCR mixtures with regular dNTPs and PCR mixtures containing dATP-SPh-NPP. Each PCR was prepared as triplicate. One section of the plate was covered with aluminum foil, whereas the other section was exposed to light from an UV-LED lamp (InGaN, Quantum well, λmax=393 nm, 0.18 W/LED) for 8.0 min. at room temperature. […] The analysis of PCR growth curves was performed from fluorescence data collected in the Cy5.5 channel, while analysis of melting curves was based on fluorescence data collected in the FAM channel (465-510 nm).

The conditions of series [3]: 5′-hydroxyl protecting group on phosphoramidites; cited from earlier work.

Results on three compounds are retold here after patent US11078534B2, “Photocleavable nucleotide reagents with high stability” (Roche Molecular Systems, Inc., priority 2017, dated 2021).

For the compound “thiophenyl o-nitrophenylpropyl dATP [dATP-SPh-NPP]”, in series [1], the “degradation at 65° C. (percentage of starting material and degradation products, peak areas at 260 nm)” value is “no degradation products were observed”; the “thermostability compared to dATP” value is listed as “significantly more thermostable than dATP”. The “irradiation time for full cleavage” value in series [2] (300 μM, 100 mM sodium phosphate buffer pH 7.0) worked out at 8 min. Besides, the “photocleavage speed compared to ATP-DMNPE” value in series [2] (both irradiated simultaneously, pH 7.0) was “significantly faster”. Further, the “dATP released by irradiation” value in series [2] (irradiation for 5 minutes, 300 μM, 100 mM sodium phosphate buffer pH 7.0) was greater than 90%. For the same compound, the “PCR amplification after UV irradiation” value with polymerase enzyme (UV light for 8.0 min. at room temperature) is recorded as “leads to DNA amplification”. Also, the “PCR amplification, no UV exposure” value in the series on polymerase enzyme (no UV exposure) is on record as “prevents PCR amplification”.

Consider “thiophenyl-2-(2-nitrophenyl)-propoxycarbonyl [SPh-NPPOC]”, for which the “increase in photo-deprotection efficiency compared to conventional NPPOC” value in series [3] is given as 12 fold.

Turning to `Nc1ncnc2c1ncn2[C@H]1C[C@H](O)[C@@H](COP(=O)(O)OP(=O)(O)OP(=O)(O)O)O1` [dATP, reference compound], the “degradation at 65° C. (percentage of starting material and degradation products, peak areas at 260 nm)” value in series [1] was “quickly degraded to the mono- and diphosphates”.
